ChEMBL document CHEMBL1201862, “PubChem BioAssay data set” (2004)
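Compound exposure: 48 hours, 5 concentrations, 96-well plates. The concentration for 50% growth inhibition is given as GI50.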 The source made the active and inactive calls. Rule as the data show it: active = GI50 up to about 1.1 µM and inactive = higher.

Legend:
Assay in all cases: NCI tumour cell line growth inhibition, 48 h
HCT-116 = test system: HCT-116
HCT-15 = test system: HCT-15
NCI-H460 = test system: NCI-H460
UACC-257 = test system: UACC-257
HT-29 = test system: HT-29
ACHN = test system: ACHN
MCF7 = test system: MCF7
OVCAR-5 = test system: OVCAR-5
SK-OV-3 = test system: SK-OV-3
OVCAR-4 = test system: OVCAR-4
RPMI-8226 = test system: RPMI-8226
SK-MEL-2 = test system: SK-MEL-2
CCRF-CEM = test system: CCRF-CEM
CAKI-1 = test system: CAKI-1
IGROV-1 = test system: IGROV-1
U-251 = test system: U-251
T47D = test system: T47D
MDA-N = test system: MDA-N
SF-295 = test system: SF-295
Malme-3M = test system: Malme-3M
HOP-92 = test system: HOP-92
HCC 2998 = test system: HCC 2998
SK-MEL-5 = test system: SK-MEL-5
MDA-MB-231 = test system: MDA-MB-231
HL-60 = test system: HL-60
KM12 = test system: KM12
MOLT-4 = test system: MOLT-4
SF-539 = test system: SF-539
SW-620 = test system: SW-620
RXF 393 = test system: RXF 393
SR = test system: SR
COLO 205 = test system: COLO 205
SNB-75 = test system: SNB-75
TK-10 = test system: TK-10
OVCAR-8 = test system: OVCAR-8
EKVX = test system: EKVX
SK-MEL-28 = test system: SK-MEL-28
PC-3 = test system: PC-3
HOP-62 = test system: HOP-62
NCI-H522 = test system: NCI-H522
Hs-578T = test system: Hs-578T
NCI-H23 = test system: NCI-H23
DU-145 = test system: DU-145
OVCAR-3 = test system: OVCAR-3
A498 = test system: A498
SF-268 = test system: SF-268
LOX IMVI = test system: LOX IMVI
SN12C = test system: SN12C
MDA-MB-435 = test system: MDA-MB-435
BT-549 = test system: BT-549
NCI-H226 = test system: NCI-H226
K562 = test system: K562
UACC-62 = test system: UACC-62
NCI/ADR-RES = test system: NCI/ADR-RES
786-0 = test system: 786-0
UO-31 = test system: UO-31
M14 = test system: M14
SNB-19 = test system: SNB-19
A549 = test system: A549

## O=C1CC(O)c2cscc21 (configuration not stated)
HCT-116
  GI50: > 100 µM (inactive)
HCT-15
  GI50: > 100 µM
NCI-H460
  GI50: > 100 µM (inactive)
UACC-257
  GI50: > 100 µM (inactive)
HT-29
  GI50: > 100 µM (inactive)
ACHN
  GI50: > 100 µM (inactive)
MCF7
  GI50: > 100 µM (inactive)
OVCAR-5
  GI50: > 100 µM (inactive)
SK-OV-3
  GI50: > 100 µM (inactive)
OVCAR-4
  GI50: > 100 µM (inactive)
RPMI-8226
  GI50: 35.3 µM (inactive)
SK-MEL-2
  GI50: > 100 µM (inactive)
CCRF-CEM
  GI50: 21.6 µM (inactive)
CAKI-1
  GI50: > 100 µM (inactive)
IGROV-1
  GI50: > 100 µM (inactive)
U-251
  GI50: > 100 µM (inactive)
T47D
  GI50: > 100 µM (inactive)
MDA-N
  GI50: > 100 µM (inactive)
SF-295
  GI50: > 100 µM (inactive)
Malme-3M
  GI50: > 100 µM (inactive)
HOP-92
  GI50: > 100 µM (inactive)
HCC 2998
  GI50: 32.2 µM (inactive)
SK-MEL-5
  GI50: > 100 µM (inactive)
MDA-MB-231
  GI50: > 100 µM (inactive)
HL-60
  GI50: > 100 µM (inactive)
KM12
  GI50: > 100 µM (inactive)
MOLT-4
  GI50: 35.2 µM (inactive)
SF-539
  GI50: > 100 µM (inactive)
SW-620
  GI50: 37.8 µM (inactive)
RXF 393
  GI50: > 100 µM (inactive)
SR
  GI50: 29.5 µM (inactive)
COLO 205
  GI50: 34 µM (inactive)
SNB-75
  GI50: > 100 µM (inactive)
TK-10
  GI50: > 100 µM (inactive)
OVCAR-8
  GI50: 65.9 µM (inactive)
EKVX
  GI50: > 100 µM (inactive)
SK-MEL-28
  GI50: > 100 µM (inactive)
PC-3
  GI50: > 100 µM (inactive)
HOP-62
  GI50: > 100 µM (inactive)
NCI-H522
  GI50: 41.3 µM (inactive)
Hs-578T
  GI50: > 100 µM (inactive)
NCI-H23
  GI50: > 100 µM (inactive)
DU-145
  GI50: > 100 µM (inactive)
OVCAR-3
  GI50: > 100 µM (inactive)
A498
  GI50: > 100 µM (inactive)
SF-268
  GI50: > 100 µM (inactive)
LOX IMVI
  GI50: 36.5 µM (inactive)
SN12C
  GI50: > 100 µM (inactive)
MDA-MB-435
  GI50: > 100 µM (inactive)
BT-549
  GI50: > 100 µM (inactive)
NCI-H226
  GI50: > 100 µM (inactive)
K562
  GI50: 38.1 µM (inactive)
UACC-62
  GI50: > 100 µM (inactive)
NCI/ADR-RES
  GI50: > 100 µM (inactive)
786-0
  GI50: > 100 µM (inactive)

## Cc1ccc2nnc(NS(=O)(=O)c3cc(C)c(Cl)cc3S)n2n1
HCT-116
  GI50: > 100 µM (inactive)
HCT-15
  GI50: > 100 µM
NCI-H460
  GI50: > 100 µM (inactive)
UACC-257
  GI50: > 100 µM (inactive)
HT-29
  GI50: > 100 µM (inactive)
ACHN
  GI50: > 100 µM (inactive)
MCF7
  GI50: > 100 µM (inactive)
OVCAR-5
  GI50: > 100 µM (inactive)
SK-OV-3
  GI50: > 100 µM (inactive)
OVCAR-4
  GI50: > 100 µM (inactive)
RPMI-8226
  GI50: > 100 µM (inactive)
SK-MEL-2
  GI50: > 100 µM (inactive)
CCRF-CEM
  GI50: > 100 µM (inactive)
CAKI-1
  GI50: > 100 µM (inactive)
IGROV-1
  GI50: > 100 µM (inactive)
U-251
  GI50: > 100 µM (inactive)
T47D
  GI50: > 100 µM (inactive)
UO-31
  GI50: 68.5 µM (inactive)
MDA-N
  GI50: > 100 µM (inactive)
Malme-3M
  GI50: > 100 µM (inactive)
HOP-92
  GI50: > 100 µM (inactive)
M14
  GI50: > 100 µM (inactive)
HCC 2998
  GI50: > 100 µM (inactive)
SK-MEL-5
  GI50: > 100 µM (inactive)
MDA-MB-231
  GI50: > 100 µM (inactive)
HL-60
  GI50: > 100 µM (inactive)
KM12
  GI50: > 100 µM (inactive)
MOLT-4
  GI50: > 100 µM (inactive)
SNB-19
  GI50: > 100 µM (inactive)
SF-539
  GI50: > 100 µM (inactive)
SW-620
  GI50: > 100 µM (inactive)
RXF 393
  GI50: > 100 µM (inactive)
SR
  GI50: > 100 µM (inactive)
COLO 205
  GI50: > 100 µM (inactive)
SNB-75
  GI50: > 100 µM (inactive)
TK-10
  GI50: > 100 µM (inactive)
OVCAR-8
  GI50: > 100 µM (inactive)
EKVX
  GI50: > 100 µM (inactive)
SK-MEL-28
  GI50: > 100 µM (inactive)
PC-3
  GI50: > 100 µM (inactive)
HOP-62
  GI50: > 100 µM (inactive)
NCI-H522
  GI50: > 100 µM (inactive)
Hs-578T
  GI50: > 100 µM (inactive)
A549
  GI50: > 100 µM (inactive)
DU-145
  GI50: > 100 µM (inactive)
OVCAR-3
  GI50: > 100 µM (inactive)
A498
  GI50: > 100 µM (inactive)
SF-268
  GI50: > 100 µM (inactive)
LOX IMVI
  GI50: > 100 µM (inactive)
SN12C
  GI50: > 100 µM (inactive)
MDA-MB-435
  GI50: > 100 µM (inactive)
BT-549
  GI50: > 100 µM (inactive)
NCI-H226
  GI50: > 100 µM (inactive)
K562
  GI50: > 100 µM (inactive)
UACC-62
  GI50: > 100 µM (inactive)
NCI/ADR-RES
  GI50: > 100 µM (inactive)
786-0
  GI50: > 100 µM (inactive)
